Data on two molecules can be found in patent US20160228452A1, “TREATMENT OF METABOLIC DISEASES BY INHIBTION OF HTR2A OR HTR3” (Korea Advanced Institute of Science and Technology, priority 2014, published 2016).

In data set [1] the target is T1, Htr3 (Mus musculus, UniProt P23979).
T1 construct: we explored the direct actions of Htr3 on BAT using immortalized brown adipocytes (IBAs); endogenous in cells; host or cells: differentiated immortalized brown adipocytes (IBAs)
T1 sequence (P23979 24-489): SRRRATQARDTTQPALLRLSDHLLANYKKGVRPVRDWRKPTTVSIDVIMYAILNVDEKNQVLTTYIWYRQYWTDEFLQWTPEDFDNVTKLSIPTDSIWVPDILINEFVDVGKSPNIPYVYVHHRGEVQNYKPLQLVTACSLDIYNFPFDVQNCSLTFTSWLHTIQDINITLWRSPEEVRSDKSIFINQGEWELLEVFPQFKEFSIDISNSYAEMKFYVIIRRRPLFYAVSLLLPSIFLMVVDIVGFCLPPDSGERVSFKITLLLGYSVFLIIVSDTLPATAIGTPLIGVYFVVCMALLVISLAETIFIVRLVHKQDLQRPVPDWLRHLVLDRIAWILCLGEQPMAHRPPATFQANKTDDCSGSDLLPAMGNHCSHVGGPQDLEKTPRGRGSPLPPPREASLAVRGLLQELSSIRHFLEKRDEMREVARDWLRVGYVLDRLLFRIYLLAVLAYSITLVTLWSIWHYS
T1 sequence (Q9JHJ5 22-437 partner): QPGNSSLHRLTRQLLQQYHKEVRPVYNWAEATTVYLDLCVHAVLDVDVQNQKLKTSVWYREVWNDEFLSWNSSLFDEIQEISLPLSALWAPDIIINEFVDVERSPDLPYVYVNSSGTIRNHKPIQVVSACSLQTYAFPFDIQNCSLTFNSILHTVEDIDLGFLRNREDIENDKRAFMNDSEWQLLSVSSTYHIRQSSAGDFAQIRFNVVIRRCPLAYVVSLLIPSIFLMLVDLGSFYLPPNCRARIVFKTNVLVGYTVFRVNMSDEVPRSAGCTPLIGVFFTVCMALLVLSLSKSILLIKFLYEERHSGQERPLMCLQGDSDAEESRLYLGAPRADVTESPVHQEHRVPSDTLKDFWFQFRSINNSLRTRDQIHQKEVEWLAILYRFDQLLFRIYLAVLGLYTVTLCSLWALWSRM
Kind of data set: Western blot for phosphorylation of PKA pathway components in IBAs. Type of data set: cell-based. The conditions noted are these: IBAs, Htr3 agonist treatment. As for the experimental part: (§1) IBAs were cultured in DMEM supplemented with 10% FBS and P/S in a humidified atmosphere of 5% CO2 at 37° C.^32. After reaching 95% confluence, the cells were induced to differentiate using DMEM with 10% FBS, 0.5 μg/mL insulin, 1 nM T3, 0.125 mM indomethacin, 2 μg/mL dexamethasone, 0.5 μM IBMX and P/S (day 0). After two days, the medium was replaced with DMEM supplemented with 10% FBS, 0.5 μg/mL insulin, 1 nM T3 and P/S (day 2), and it was changed every two days from days 4 to 8. We confirmed that these cell lines are free from Mycoplasma infection.
Whole-cell lysates were extracted by incubating cells in RIPA buffer (25 mM Tris-HCl pH 7.6, 150 mM NaCl, 1% NP-40, 1% sodium deoxycholate, 0.1% SDS) plus protease inhibitors (Roche). Supernatant was collected following a brief centrifuge, and protein concentrations in the supernatant were determined using the BCA Protein Assay Kit (Thermo Scientific, Rockford, Ill., USA). The cell lysates were then mixed with equal volumes of 2× Laemmli buffer (4% SDS, 20% glycerol, 10% 2-mercaptoethanol, 0.01% bromophenol blue, and 120 mM Tris-HCl, pH 6.8) and boiled for 5 min at 95° C. Then, the protein samples were separated by SDS-PAGE and transferred to a PVDF membrane (Millipore). […]
Background: Immunoblotting shows a protein as a band on a membrane.

The target in data set [2] is T1, Htr3. Nature of the data set: cAMP assay (competitive ELISA) in immortalized brown adipocytes. As to conditions: IBAs, 1 uM ondansetron or 100 nM m-CPBG, 15 min. It is filed as cell-based. As for the experimental part:
as §1
Differentiated IBAs were treated with 1 uM ondansetron or 100 nM m-CPBG or 1 uM CL-316243 for 15 min. 1 uM […] was used as a positive control. The cAMP competitive ELISA (Promega) was performed according to the manufacturer's instruction. Briefly, cAMP was extracted by adding 0.1 M HCl with 0.5% triton X-100 to the cells. After centrifugation at 600 g for 10 min, the supernatant was used for the determination of cAMP levels by competitive cAMP ELISA.
For orientation: cAMP levels reflect the balance of adenylyl cyclase and phosphodiesterase activity.

The target of data set [3] is T1, Htr3. Nature of the data set: Real-time PCR of thermogenic genes in IBAs. The conditions noted are these: 2 h after Htr3 agonist treatment. Type of data set: cell-based. As for the experimental part:
as §1
Total RNA was extracted from the mouse tissues or cell lines using TRIzol reagent (Invitrogen) according to the manufacturer's protocol. After TURBO DNase (Invitrogen) treatment, 2 μg of total RNA was used to generate complementary DNA with Superscript III reverse transcriptase (Invitrogen). To analyze gene expression, real-time PCR was performed with a ViiA 7 Real-Time PCR system (Applied Biosystems) and the Power SYBR Green PCR master mix (Applied Biosystems). Relative quantification was based on the ddCt method, and ActB was used as an endogenous control (internal control).

A short description of data set [4]: Glucose tolerance test and insulin tolerance test. Type of data set: in vivo, mice. As to conditions: LP-533401 30 mg/kg orally, 10 weeks, HFD-fed mice vs HFD-fed control. As for the experimental part: For the glucose tolerance tests, the mice were administered 2 g/kg D-glucose in PBS after overnight fasting. For the insulin tolerance tests, the mice were intraperitoneally injected with insulin (0.75 U/kg) after being fasted for 4 h. The blood glucose levels in blood samples obtained from tail veins 0, 15, 30, 45, 60, 90 and 120 min after injection were measured using a Gluco DR Plus glucometer (Allmedicus).

The conditions of data set [5]: reference 18; cited from earlier work.
The nature of data set [6]: High-fat-diet-induced obesity in mice: growth curves, body weight and eWAT mass. It is filed as in vivo. As to conditions: LP-533401 30 mg/kg orally daily, 10 weeks, SCD or HFD. From the text:
The generation of Tph^flox/flox mice, Adipoq-cre mice, and aP2-CreERT2 mice has previously been reported^17,30,31. C57BL/6J mice, Htr3a-targeted KO mice (B6.129X1-Htr3a^tm1jul/J, Htr3a KO) and leptin-deficient ob/ob mice (B6.V-Lep^ob/J) were purchased from the Jackson Laboratory (Bar Harbor, Me., USA). To create the adipose tissue-specific Tph1 KO mice, Tph1^flox/flox mice were crossed with Adipoq-Cre mice (Tph1 FKO mice) and aP2-CreERT2 mice (Tph1 AFKO mice). The mice were housed in climate-controlled, specific pathogen-free (SPF) barrier facilities under a 12-h light-dark cycle, and chow and water were provided ad libitum. The Institutional Animal Care and Use Committee at the Korea Advanced Institute of Science and Technology approved the experimental protocols for this study. Htr3a KO mice and Tph1^flox/flox mice were backcrossed with C57BL/6J mice for more than 10 generations. Cre-recombination of 6-week-old Tph1 AFKO mice was induced by intraperitoneal (IP) injection of 5 doses of 2 mg of tamoxifen (Sigma) for 1 week. We fed male mice (aged 8˜10 weeks) either on SCD (standard chow diet; 12% fat calories, Purina Laboratory Rodent Diets 38057) or HFD (60% fat calories, Research Diets D12492). PBS or 300 mg/kg PCPA was administered as a daily intraperitoneal injection. LP-533401 was dissolved in PEG-400 and 5% dextrose (40:60 ratio). Vehicle or 30 mg/kg LP-533401 was administered daily with a feeding needle. We randomly divided C57BL/6J mice into 2-4 groups. For transgenic mice, we compared data between KO mice and their WT littermates. No blinding was done.

Consider `N=C(N)NC(=N)Nc1cccc(Cl)c1` [m-CPBG, 1-(m-chlorophenyl)-biguanide], for which, in data set [1], the “phosphorylation of HSL and PKA substrate” value is “decreased”. Moreover, the “cAMP level in the absence of β3AR agonist” value in data set [2] was “did not affect cAMP levels”. The “Ucp1 mRNA level” value in data set [3] is on record as “decreased”.

On to `Nc1nc(OC(c2ccc(-c3cccc(F)c3)cc2)C(F)(F)F)cc(-c2ccc(C[C@H](N)C(=O)O)cc2)n1` (stereo partly drawn) [LP-533401], for which the “glucose tolerance (IPGTT)” value in data set [4] is recorded as “improved glucose tolerance”. Also, the “crossing of the blood-brain barrier” value in data set [5] is reported as “cannot cross the blood-brain barrier”. For the same molecule, the “anti-obesity effects (growth curves)” value in data set [6] is given as “also observed”.
